Values joined by “and” are separate entries in the source; they are usually repeats but may differ in a detail not shown here. Identical values can stand only once. Like-named read-outs stand apart in the source and are kept apart here.
Assays:
Assay type in all cases: cell-based
MIA PaCa-2 = assay: MTT cell viability assay, MIA PaCa-2
Protocol: (§1) All cell lines were cultured at 37 °C with 5% CO2 in a humidified incubator. HeLa cells were grown in MEM (Gibco) supplemented with 10% fetal bovine serum (FBS, Hyclone) and 1% penicillin/streptomycin (Gibco). MIA PaCa-2, MDA-MB-231, A549, MCF-7, A375 and BEAS-2B cells were grown in DMEM (Gibco) supplemented with 10% FBS and 1% penicillin/streptomycin. CT26, and HCT116 cells were grown in RPMI-1640 supplemented with 10% FBS and 1% penicillin/streptomycin. All cell lines were purchased from the National Collection of Authenticated Cell Cultures (China).
(§2) The antiproliferative activities of the prepared compounds against tested cell lines were evaluated using a standard (MTT)-based colorimetric assay. Cells were plated at a density of 3000 cells/well in 96-well plates and allowed to adhere overnight. Then cells were treated with varying concentrations of synthesized compounds for 72 h. At the end of treatment, 20 μL of thiazolyl blue tetrazolium bromide (MTT) solution (5 mg/mL) was added to each well. Cells were incubated for an additional 4 h at 37 °C and then the medium was removed and replaced with 200 μL of DMSO. The absorbance (OD490) was read on a microplate reader (SpectraMax i3x, Molecular Devices, US). In all experiments, three replicate wells were used for each drug concentration. Each assay was performed at least three times. The IC50 values were calculated by GraphPad Prism 9, which were the mean values derived from three independent experiments.

MDA-MB-231 = assay: MTT cell viability assay, MDA-MB-231
Protocol: as §1, §2

Hela = assay: MTT cell viability assay, Hela
Protocol: as §1, §2

A549 = assay: MTT cell viability assay, A549
Protocol: as §1, §2

MCF-7 = assay: MTT cell viability assay, MCF-7
Protocol: as §1, §2

CT26 = assay: MTT cell viability assay, CT26
Protocol: as §1, §2

HCT 116 = assay: MTT cell viability assay, HCT 116
Protocol: as §1, §2

[1] = MTT cytotoxicity towards normal cells, BEAS-2B; conditions: human
Protocol: as §1, §2

cancer cell lines = assay: In vitro cancer cell assays (antiproliferation, cell line not given); conditions: improvement over vellosimine (4)
Protocol: as §1, §2

MDA-MB-231 cells [2] = assay: Cell death manner assay (MTT, co-incubation with cell death inhibitors)
Protocol: [The source words this procedure for another cell line and reports this cell line under the same test.] To investigate the mechanism of 15ai in cancer cell proliferation inhibition, the manners of cell death were analyzed. The cell apoptosis inhibitor Z-VAD-FMK (Z-VAD), cell necrosis inhibitor Necrostatin-1 (Necro-1), ferroptosis inhibitor Ferrostatin-1 (Fer-1), and ROS inhibitor N-acetylcysteine (NAC) were purchased and stored at −20 °C. A375 cells were seeded with a density of 5000 cells/100 µL/well into 96 well plates. After 12 h, 15ai was added at different concentrations. Following that 10 µM Z-VAD, 10 µM Nerco-1, 10 µM Fer-1, and 5 mM NAC were added and co-incubated with 15ai, respectively, for 72 h. Then, 20 µL MTT solution (5 mg/mL) was added and incubated at 37 °C for an additional 4 h. Then, the supernatant was discarded, and 200 μL DMSO was added to dissolve the precipitate. After 15 min, the absorbance (OD490) was read on a microplate reader (SpectraMax i3x, Austria). In all experiments, three replicate wells were used for each drug concentration. Each assay was performed at least three times.

MDA-MB-231 cells [3] = assay: Measurement of glutathione levels
Protocol: Cells were plated at a density of 2 × 10^5 cells/well in 6-well plates and allowed to adhere overnight. After being treated as indicated, cells were collected and prepared for measurement of total intracellular glutathione (GSH + GSSG) using the assay kit (Beyotime, S0052) according to the manufacturer’s instructions. […]

MDA-MB-231 cells [4] = assay: Measurement of lipid (BODIPY-C11) and cytosolic (DCFH-DA) ROS; conditions: 12 h; suppressed by Fer-1 (10 μM)
Protocol: Lipid ROS was analyzed by flow cytometry: cells were plated at a density of 2 × 10^5 cells/well in 6-well plates. After treatment as indicated, cells were stained with 5 μM BODIPY-C11 dye (diluted in serum-containing DMEM) for 30 min at 37 °C in an incubator. For cytosolic ROS, cells were stained with 10 μM DCF (diluted in serum-free DMEM). Following staining, cells were pelleted and resuspended in 1 mL of PBS. Fluorescence intensity was measured by the analytical flow cytometry (CytoFLEX, […], US). A minimum of 10,000 cells were analyzed for each condition. Data analysis was performed using the FlowJo 7.6.1 software. The starting cell population gating by Forward Scatter and Side Scatter was used to make sure doublet exclusion. Only single cell was used for analysis.

For C=C=C1CN2[C@H]3C[C@H]1[C@H](C=O)[C@@H]2Cc1c3n(S(=O)(=O)c2ccc(C)cc2)c2ccc(Cl)cc12 [Compound 15ai], the IC50 (MIA PaCa-2; Homo sapiens, MIA PaCa-2, 72 h, MTT, 72 h, mean of at least three independent experiments, read-out: IC50 MIA PaCa-2) was 8.32 µM, the IC50 (MIA PaCa-2; Homo sapiens, MIA PaCa-2, source data sheet, single values of three experiments, read-out: MTT IC50 MIA PaCa-2) was 7.92 µM and the IC50 (MIA PaCa-2; source data sheet, single values of three experiments, read-out: MTT IC50 MIA PaCa-2) was 10 µM and 7.05 µM. The IC50 (MDA-MB-231; Homo sapiens, MDA-MB-231, 72 h, MTT, 72 h, mean of at least three independent experiments, read-out: IC50 MDA-MB-231) was 2.03 µM, the IC50 (MDA-MB-231; Homo sapiens, MDA-MB-231, source data sheet, single values of three experiments, read-out: MTT IC50 MDA-MB-231) was 1.68 µM and the IC50 (MDA-MB-231; source data sheet, single values of three experiments, read-out: MTT IC50 MDA-MB-231) was 2.11 µM and 2.31 µM. For the same molecule, the IC50 (Hela; Homo sapiens, HeLa, 72 h, MTT, 72 h, mean of at least three independent experiments, read-out: IC50 Hela) was 2.95 µM, the IC50 (Hela; Homo sapiens, HeLa, source data sheet, single values of three experiments, read-out: MTT IC50 Hela) was 3.02 µM and the IC50 (Hela; source data sheet, single values of three experiments, read-out: MTT IC50 Hela) was 2.02 µM and 3.81 µM. For the same molecule, the IC50 (A549; Homo sapiens, A549, 72 h, MTT, 72 h, mean of at least three independent experiments, read-out: IC50 A549) was 13 µM, the IC50 (A549; Homo sapiens, A549, source data sheet, single values of three experiments, read-out: MTT IC50 A549) was 14.6 µM and the IC50 (A549; source data sheet, single values of three experiments, read-out: MTT IC50 A549) was 12.5 µM and 11.8 µM. The IC50 (MCF-7; Homo sapiens, MCF7, 72 h, MTT, 72 h, mean of at least three independent experiments, read-out: IC50 MCF-7) was 13.9 µM, the IC50 (MCF-7; Homo sapiens, MCF7, source data sheet, single values of three experiments, read-out: MTT IC50 MCF-7) was 16 µM and the IC50 (MCF-7; source data sheet, single values of three experiments, read-out: MTT IC50 MCF-7) was 12.8 µM and 12.9 µM. For the same molecule, the IC50 (CT26; Mus musculus, CT26, 72 h, MTT, 72 h, mean of at least three independent experiments, read-out: IC50 CT26) was 5.98 µM, the IC50 (CT26; Mus musculus, CT26, source data sheet, single values of three experiments, read-out: MTT IC50 CT-26) was 7.11 µM and the IC50 (CT26; source data sheet, single values of three experiments, read-out: MTT IC50 CT-26) was 5.83 µM and 4.99 µM. For the same molecule, the IC50 (HCT 116; Homo sapiens, HCT-116, 72 h, MTT, 72 h, mean of at least three independent experiments, read-out: IC50 HCT 116) was 4.78 µM, the IC50 (HCT 116; Homo sapiens, HCT-116, source data sheet, single values of three experiments, read-out: MTT IC50 HCT-116) was 6.28 µM and the IC50 (HCT 116; source data sheet, single values of three experiments, read-out: MTT IC50 HCT-116) was 3.83 µM and 4.24 µM. For the same molecule, the IC50 at 72 h ([1]; BEAS-2B lung epithelial cells (normal cells), source data sheet, single values of three experiments) was over 100 µM, the CC50 at 72 h ([1]; BEAS-2B lung epithelial cells, MTT, 72 h, cytotoxicity towards normal cells, mean of at least three independent experiments) was over 100 µM and the “anticancer activity compared to vellosimine (4)” value (cancer cell lines) was “tenfold-improved”. The viability at 10 µM (MDA-MB-231 cells [2]; Homo sapiens, MDA-MB-231, 72 h, read-out: Percentage of viability, Fer-1 / NAC experiment, 15ai 10 μM, Fer-1 10 μM, NAC 5 mM, 72 h, single replicates) was 21.2%, the “reversal of 15ai-induced cell death by Z-VAD or Necro-1” value (MDA-MB-231 cells [2]; MDA-MB-231 cells, addition of apoptosis inhibitor Z-VAD-FMK or necroptosis inhibitor necrostatin-1) was “could not reverse cell death” and the “rescue of cell viability by Fer-1 or NAC” value (MDA-MB-231 cells [2]; co-existence of ferroptosis inhibitor Fer-1 or ROS inhibitor NAC) was “remarkably rescued cell viability”. The “GSH levels (% of control)” value (MDA-MB-231 cells [3]; 15ai 4 μM per Fig. 4, single replicates) was 52.357 % of control and 54.35 % of control, the “GSH levels (% of control)” value (MDA-MB-231 cells [3]; (15ai 2 μM per Fig. 4), single replicates) was 80.51 % of control and 78.85 % of control and the “GSH levels (% of control)” value (MDA-MB-231 cells [3]; (15ai 8 μM per Fig. 4), single replicates) was 27.587 % of control and 22.5 % of control. The GSH level (% of control) at 2 µM (MDA-MB-231 cells [3]; Homo sapiens, MDA-MB-231, column 2 (15ai 2 μM per Fig. 4), single replicates) was 84.6%, the GSH level (% of control) at 4 µM (MDA-MB-231 cells [3]; Homo sapiens, MDA-MB-231, column 4 (15ai 4 μM per Fig. 4), single replicates) was 61.6% and the GSH level (% of control) at 8 µM (MDA-MB-231 cells [3]; Homo sapiens, MDA-MB-231, column 8 (15ai 8 μM per Fig. 4), single replicates) was 23.2%. For the same molecule, the GSH levels (MDA-MB-231 cells [3]; result in words, 15ai 0, 2, 4 and 8 μM) was “dose-dependently decreased” and the “lipid ROS and cytosolic ROS accumulation” value (MDA-MB-231 cells [4]) was “induce lipid ROS and cytosolic ROS accumulation significantly”.

— paper PMC10492809, “A Bischler-Napieralski and homo-Mannich sequence enables diversified syntheses of sarpagine alkaloids and analogues” (Nature Communications, 2023)
